The values that follow come from paper PMC2941879 (Bioorganic & medicinal chemistry, 2010).

The target in test [1] is α2C receptors. The settings on record: read-out: Affinity at α2C receptors; cited from earlier work.
In test [2] the target is cloned hD1 receptors (Homo sapiens, UniProt P21728). As to the kind of experiment: Cyclic AMP accumulation assay. It is filed as cell-based.

Counter-ions that a name gives are not always drawn.

Sequence of cloned hD1 receptors (P21728 whole entry): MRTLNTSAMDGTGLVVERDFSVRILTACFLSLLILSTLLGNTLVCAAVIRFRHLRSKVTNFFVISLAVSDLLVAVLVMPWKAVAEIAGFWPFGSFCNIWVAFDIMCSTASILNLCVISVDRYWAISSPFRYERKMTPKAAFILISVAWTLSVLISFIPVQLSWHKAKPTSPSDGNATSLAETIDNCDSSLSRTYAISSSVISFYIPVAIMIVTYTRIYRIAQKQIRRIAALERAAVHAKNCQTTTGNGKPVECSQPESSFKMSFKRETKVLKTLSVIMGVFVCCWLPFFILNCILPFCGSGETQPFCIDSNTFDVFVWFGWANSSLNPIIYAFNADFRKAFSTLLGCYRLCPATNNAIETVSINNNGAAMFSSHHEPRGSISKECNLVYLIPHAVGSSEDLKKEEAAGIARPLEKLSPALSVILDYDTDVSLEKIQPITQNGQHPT

For `Oc1cc2c(cc1O)C1c3ccccc3CNC1CO2` (centres unmarked) [DOX, doxanthrine], the Ki in test [1] was 2 nM. Take `Oc1ccc2c(c1O)C[C@@H](c1ccccc1)[C@@H]1CCNC[C@@H]21` [compound 3, Trans-5-Phenyl-1,2,3,4,4a,5,6,10b-octahydrobenzo[h]isoquinoline-7,8-diol Hydrobromide]: in test [2], the “Agonist character at D1 receptors” value is “full agonist”.
